This note sets out measurements from ChEMBL document CHEMBL5465560, “Selectivity Literature for EUbOPEN Chemogenomic Library” (2024).

Experiment [1] addresses T1, Serine/threonine-protein kinase ICK (Homo sapiens) (UniProt Q9UPZ9).
T1 sequence (whole entry): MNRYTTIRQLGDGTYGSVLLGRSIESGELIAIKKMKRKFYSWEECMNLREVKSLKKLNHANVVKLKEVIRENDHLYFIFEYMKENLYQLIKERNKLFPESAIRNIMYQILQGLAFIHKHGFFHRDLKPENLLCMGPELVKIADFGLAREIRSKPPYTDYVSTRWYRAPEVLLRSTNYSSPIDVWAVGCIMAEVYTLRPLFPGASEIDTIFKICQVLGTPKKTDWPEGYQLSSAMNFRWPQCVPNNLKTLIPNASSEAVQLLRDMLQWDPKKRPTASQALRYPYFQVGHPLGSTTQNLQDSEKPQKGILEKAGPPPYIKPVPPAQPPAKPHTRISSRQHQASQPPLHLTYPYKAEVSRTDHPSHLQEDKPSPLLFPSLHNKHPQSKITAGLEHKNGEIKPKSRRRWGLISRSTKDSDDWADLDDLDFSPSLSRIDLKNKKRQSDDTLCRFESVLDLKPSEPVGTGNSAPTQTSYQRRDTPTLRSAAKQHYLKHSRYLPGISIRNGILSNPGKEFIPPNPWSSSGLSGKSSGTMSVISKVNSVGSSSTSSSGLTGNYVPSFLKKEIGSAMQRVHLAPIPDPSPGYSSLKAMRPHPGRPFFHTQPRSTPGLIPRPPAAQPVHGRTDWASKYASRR
Kind of experiment: Selectivity interaction (KinomeScan (DiscoverX)) EUB0000607a ICK. To be noted: at 10 µM.

In experiment [2] the target is Serine/threonine-protein kinase PLK2 (Homo sapiens, UniProt Q9NYY3). Particulars: at 10 µM.
Experiment [3] addresses T2, Serine/threonine-protein kinase Nek2 (Homo sapiens) (UniProt P51955).
T2 sequence (whole entry): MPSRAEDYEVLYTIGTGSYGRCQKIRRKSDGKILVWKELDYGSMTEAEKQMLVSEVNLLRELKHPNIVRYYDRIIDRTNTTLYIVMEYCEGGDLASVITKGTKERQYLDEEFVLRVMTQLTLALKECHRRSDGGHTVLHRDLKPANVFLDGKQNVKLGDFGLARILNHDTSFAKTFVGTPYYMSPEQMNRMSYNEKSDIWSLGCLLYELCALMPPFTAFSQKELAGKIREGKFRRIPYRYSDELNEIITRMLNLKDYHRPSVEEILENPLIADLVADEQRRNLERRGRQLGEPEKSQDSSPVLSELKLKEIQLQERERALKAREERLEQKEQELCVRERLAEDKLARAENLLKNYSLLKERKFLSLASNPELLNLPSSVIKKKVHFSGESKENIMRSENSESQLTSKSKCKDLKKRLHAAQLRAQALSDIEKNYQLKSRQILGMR
Kind of experiment: Selectivity interaction (KinomeScan (DiscoverX)) EUB0000666a NEK2. Particulars: at 10 µM.

Experiment [4] deals with Receptor tyrosine-protein kinase erbB-4 (Homo sapiens, UniProt Q15303). Kind of experiment: Selectivity interaction (KinomeScan (DiscoverX)) EUB0000229b ERBB4. Particulars: at 10 µM.
Sequence of Receptor tyrosine-protein kinase erbB-4 (Q15303 whole entry): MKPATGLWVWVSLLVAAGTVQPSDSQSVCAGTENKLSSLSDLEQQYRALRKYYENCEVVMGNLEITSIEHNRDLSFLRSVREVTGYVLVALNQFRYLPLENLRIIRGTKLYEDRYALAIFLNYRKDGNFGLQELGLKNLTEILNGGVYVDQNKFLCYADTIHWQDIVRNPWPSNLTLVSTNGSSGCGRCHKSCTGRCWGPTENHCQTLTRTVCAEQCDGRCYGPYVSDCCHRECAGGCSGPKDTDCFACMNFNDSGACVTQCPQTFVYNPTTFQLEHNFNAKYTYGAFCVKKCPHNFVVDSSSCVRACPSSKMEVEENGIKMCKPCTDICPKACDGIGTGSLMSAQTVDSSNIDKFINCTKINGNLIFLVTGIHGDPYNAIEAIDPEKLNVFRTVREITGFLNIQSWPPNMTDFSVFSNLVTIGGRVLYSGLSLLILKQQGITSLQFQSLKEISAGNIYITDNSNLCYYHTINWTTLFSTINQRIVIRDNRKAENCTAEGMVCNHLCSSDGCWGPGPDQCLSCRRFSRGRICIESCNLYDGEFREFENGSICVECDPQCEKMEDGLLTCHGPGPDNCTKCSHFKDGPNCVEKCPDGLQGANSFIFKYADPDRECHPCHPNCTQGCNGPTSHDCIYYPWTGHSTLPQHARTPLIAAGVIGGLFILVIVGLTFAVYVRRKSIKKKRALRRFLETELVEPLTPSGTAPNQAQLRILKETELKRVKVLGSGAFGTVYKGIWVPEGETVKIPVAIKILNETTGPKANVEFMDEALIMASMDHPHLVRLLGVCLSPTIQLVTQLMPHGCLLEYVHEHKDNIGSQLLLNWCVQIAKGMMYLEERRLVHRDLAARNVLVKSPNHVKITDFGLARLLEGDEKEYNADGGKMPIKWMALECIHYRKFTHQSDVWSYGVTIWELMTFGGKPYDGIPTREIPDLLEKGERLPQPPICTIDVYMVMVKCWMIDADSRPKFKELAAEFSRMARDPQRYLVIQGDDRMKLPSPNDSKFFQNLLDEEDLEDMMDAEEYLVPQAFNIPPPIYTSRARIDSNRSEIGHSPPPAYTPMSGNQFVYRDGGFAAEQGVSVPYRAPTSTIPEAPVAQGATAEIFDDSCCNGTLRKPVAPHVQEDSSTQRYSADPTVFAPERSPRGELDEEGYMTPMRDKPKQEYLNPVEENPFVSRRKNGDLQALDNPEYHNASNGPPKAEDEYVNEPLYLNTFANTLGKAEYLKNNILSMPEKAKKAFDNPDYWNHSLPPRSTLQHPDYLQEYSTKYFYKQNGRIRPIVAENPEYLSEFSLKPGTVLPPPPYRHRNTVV
The target in experiment [5] is Histone-lysine N-methyltransferase, H3 lysine-36 specific (Homo sapiens) (UniProt Q96L73). Kind of experiment: Selectivity interaction (Methyltransferase screen (Scintillation proximity assays)) EUB0000255b NSD1. To be noted: at 1 µM.
The target of experiment [6] is 5-hydroxytryptamine receptor 2A (Homo sapiens, UniProt P28223). Kind of experiment: Selectivity interaction (GPCR panel (PDSP screen)) EUB0001079a HTR2A. Particulars: at 10 µM.
Sequence of 5-hydroxytryptamine receptor 2A (P28223 whole entry): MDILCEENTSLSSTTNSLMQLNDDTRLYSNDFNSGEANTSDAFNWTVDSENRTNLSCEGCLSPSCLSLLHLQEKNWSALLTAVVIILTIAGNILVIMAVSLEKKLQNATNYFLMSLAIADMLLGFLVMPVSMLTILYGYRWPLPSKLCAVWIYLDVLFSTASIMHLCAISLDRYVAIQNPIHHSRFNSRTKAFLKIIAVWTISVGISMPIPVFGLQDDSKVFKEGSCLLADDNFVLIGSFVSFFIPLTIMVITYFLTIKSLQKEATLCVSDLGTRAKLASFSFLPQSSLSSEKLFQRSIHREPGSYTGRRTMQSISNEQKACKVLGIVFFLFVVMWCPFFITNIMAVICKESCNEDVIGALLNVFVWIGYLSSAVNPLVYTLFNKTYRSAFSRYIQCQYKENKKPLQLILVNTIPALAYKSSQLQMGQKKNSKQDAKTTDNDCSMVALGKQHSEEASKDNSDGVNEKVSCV
Experiment [7] has as its target Mast/stem cell growth factor receptor Kit (Homo sapiens, UniProt P10721). Kind of experiment: Selectivity interaction (KinomeScan (DiscoverX)) EUB0001619a KIT. To be noted: at 1 µM.
For experiment [8], the target named is Phosphatidylinositol 4,5-bisphosphate 3-kinase catalytic subunit gamma isoform (Homo sapiens) (UniProt P48736). Kind of experiment: Selectivity interaction (KinomeScan (DiscoverX)) EUB0001049a PIK3CG. Particulars: at 1 µM.
Sequence of Phosphatidylinositol 4,5-bisphosphate 3-kinase catalytic subunit gamma isoform (Homo sapiens) (P48736 whole entry, looked up, canonical isoform): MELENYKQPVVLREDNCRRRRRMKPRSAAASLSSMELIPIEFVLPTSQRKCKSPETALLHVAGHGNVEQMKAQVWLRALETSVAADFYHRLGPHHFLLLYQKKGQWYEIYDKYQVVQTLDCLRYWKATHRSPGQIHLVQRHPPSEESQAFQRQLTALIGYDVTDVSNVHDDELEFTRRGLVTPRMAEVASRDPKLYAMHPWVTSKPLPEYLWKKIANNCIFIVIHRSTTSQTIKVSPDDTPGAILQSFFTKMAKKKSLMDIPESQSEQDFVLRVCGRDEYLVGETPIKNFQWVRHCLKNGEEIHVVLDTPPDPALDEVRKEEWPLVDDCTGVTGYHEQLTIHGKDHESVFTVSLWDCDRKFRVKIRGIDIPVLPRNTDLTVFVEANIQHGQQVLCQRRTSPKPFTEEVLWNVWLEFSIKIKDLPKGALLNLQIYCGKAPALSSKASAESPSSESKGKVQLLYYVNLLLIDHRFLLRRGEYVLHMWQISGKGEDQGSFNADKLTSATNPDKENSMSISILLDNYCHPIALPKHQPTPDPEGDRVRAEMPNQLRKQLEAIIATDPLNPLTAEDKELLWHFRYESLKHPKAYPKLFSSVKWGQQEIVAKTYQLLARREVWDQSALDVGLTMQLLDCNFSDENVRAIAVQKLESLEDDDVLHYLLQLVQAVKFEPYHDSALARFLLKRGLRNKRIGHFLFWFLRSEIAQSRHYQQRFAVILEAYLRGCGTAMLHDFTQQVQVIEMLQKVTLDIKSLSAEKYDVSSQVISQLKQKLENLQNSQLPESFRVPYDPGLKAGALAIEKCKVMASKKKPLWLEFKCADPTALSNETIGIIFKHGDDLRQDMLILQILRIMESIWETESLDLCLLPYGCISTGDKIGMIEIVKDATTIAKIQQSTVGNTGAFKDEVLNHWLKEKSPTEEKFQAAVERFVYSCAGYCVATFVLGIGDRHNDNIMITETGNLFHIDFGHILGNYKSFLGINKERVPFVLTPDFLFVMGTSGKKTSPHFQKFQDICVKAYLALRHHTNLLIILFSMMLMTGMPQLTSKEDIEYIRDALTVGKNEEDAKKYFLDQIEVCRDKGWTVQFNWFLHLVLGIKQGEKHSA
Experiment [9] has as its target G protein-coupled receptor kinase 5 (Homo sapiens, UniProt P34947). Kind of experiment: Selectivity interaction (ProQinase) EUB0000171b GRK5.
Experiment [10] deals with Fibroblast growth factor receptor 1 (Homo sapiens, UniProt P11362). Kind of experiment: Selectivity interaction (KinomeScan (DiscoverX)) EUB0000618a FGFR1. Particulars: at 10 µM.
The target in experiment [11] is T3, Serine/threonine-protein kinase D1 (Homo sapiens) (UniProt Q15139).
T3 sequence (whole entry): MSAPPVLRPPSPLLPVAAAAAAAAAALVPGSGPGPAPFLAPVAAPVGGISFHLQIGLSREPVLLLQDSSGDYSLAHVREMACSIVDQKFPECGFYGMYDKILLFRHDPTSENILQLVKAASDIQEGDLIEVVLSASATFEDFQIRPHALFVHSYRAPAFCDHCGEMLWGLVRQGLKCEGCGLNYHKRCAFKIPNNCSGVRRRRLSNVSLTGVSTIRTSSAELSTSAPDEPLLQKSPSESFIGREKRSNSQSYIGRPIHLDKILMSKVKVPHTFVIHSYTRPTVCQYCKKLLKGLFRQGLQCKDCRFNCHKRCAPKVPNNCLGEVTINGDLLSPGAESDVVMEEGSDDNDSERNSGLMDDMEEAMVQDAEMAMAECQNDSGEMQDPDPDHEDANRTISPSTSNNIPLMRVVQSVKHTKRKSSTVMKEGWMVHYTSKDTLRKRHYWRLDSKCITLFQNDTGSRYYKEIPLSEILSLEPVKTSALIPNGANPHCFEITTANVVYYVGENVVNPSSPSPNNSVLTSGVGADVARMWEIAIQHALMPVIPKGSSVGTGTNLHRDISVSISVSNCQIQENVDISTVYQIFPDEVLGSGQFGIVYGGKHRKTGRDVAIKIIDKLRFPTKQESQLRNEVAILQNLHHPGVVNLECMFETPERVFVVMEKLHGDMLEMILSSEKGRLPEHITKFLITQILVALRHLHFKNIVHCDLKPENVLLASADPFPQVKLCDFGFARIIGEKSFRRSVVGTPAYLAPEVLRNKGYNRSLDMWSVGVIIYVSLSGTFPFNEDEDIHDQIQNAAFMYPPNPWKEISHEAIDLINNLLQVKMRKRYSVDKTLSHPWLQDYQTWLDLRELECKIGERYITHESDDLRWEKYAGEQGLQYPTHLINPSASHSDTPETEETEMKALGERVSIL
Kind of experiment: Selectivity interaction (Upstate Kinase Profiler service (Millipore)) EUB0000056c PRKD1. Particulars: at 1 µM.

For experiment [12], the target named is Tyrosine-protein kinase Fgr (Homo sapiens) (UniProt P09769). Kind of experiment: Selectivity interaction (KinomeScan (DiscoverX)) EUB0000595a FGR. To be noted: at 10 µM.
Sequence of Tyrosine-protein kinase Fgr (Homo sapiens) (P09769 2-529 limits assumed): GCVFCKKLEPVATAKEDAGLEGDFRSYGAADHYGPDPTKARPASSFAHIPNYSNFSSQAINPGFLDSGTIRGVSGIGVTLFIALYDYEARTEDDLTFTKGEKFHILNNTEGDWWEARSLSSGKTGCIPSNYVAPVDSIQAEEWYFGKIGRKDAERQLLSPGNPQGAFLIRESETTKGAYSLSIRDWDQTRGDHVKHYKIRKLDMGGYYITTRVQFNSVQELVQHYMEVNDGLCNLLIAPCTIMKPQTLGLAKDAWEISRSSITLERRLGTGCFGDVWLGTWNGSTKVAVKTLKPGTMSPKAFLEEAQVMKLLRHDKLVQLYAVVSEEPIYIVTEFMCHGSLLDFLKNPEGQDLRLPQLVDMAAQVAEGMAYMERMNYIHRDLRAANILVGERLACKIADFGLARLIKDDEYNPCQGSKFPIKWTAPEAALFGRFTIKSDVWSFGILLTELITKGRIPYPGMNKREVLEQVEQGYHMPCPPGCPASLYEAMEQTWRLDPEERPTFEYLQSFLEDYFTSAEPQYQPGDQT

Structures are written as SMILES.

Sequence of G protein-coupled receptor kinase 5 (P34947 whole entry, looked up): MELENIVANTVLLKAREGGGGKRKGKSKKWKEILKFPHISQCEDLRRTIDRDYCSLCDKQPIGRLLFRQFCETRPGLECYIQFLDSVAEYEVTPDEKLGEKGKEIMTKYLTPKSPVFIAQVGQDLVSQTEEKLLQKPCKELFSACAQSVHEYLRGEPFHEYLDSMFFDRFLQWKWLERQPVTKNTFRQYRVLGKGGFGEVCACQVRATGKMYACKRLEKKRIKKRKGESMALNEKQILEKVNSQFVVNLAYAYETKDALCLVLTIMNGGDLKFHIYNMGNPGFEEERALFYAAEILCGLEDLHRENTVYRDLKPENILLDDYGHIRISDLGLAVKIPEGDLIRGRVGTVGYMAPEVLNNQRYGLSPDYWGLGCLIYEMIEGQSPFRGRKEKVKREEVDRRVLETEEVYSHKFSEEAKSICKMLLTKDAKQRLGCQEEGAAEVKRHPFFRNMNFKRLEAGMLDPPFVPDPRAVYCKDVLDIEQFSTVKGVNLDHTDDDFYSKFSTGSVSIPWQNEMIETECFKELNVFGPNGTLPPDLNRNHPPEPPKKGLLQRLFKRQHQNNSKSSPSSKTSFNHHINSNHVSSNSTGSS
Sequence of Mast/stem cell growth factor receptor Kit (P10721 whole entry, canonical isoform): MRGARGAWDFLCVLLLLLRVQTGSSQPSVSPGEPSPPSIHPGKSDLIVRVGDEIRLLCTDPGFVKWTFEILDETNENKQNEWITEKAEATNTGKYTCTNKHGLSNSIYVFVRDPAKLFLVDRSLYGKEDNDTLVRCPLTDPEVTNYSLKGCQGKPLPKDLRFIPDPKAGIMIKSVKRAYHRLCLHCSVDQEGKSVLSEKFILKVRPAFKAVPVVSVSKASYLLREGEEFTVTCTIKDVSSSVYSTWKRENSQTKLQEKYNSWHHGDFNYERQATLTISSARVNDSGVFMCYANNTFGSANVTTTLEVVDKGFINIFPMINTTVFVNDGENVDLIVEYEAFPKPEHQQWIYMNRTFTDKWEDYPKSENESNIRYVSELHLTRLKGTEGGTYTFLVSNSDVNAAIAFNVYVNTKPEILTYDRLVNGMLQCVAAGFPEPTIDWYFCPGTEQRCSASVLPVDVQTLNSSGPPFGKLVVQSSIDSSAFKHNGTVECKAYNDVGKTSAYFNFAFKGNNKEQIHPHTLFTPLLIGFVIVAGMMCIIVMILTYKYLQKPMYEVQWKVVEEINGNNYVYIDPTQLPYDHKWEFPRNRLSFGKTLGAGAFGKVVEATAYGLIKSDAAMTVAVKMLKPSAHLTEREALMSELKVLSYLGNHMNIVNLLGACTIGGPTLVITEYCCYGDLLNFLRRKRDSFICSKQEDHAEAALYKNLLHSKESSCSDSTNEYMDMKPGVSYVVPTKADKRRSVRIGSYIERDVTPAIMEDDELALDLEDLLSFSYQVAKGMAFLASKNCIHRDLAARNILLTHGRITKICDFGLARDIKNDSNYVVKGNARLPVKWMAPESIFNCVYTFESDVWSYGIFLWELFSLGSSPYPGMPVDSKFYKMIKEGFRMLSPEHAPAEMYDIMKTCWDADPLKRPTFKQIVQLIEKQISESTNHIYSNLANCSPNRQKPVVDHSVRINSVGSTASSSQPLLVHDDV

Compound `CNC(=O)Nc1ccc(-c2nc(N3CC4CCC(C3)O4)c3cnn(C4CCC5(CC4)OCCO5)c3n2)cc1` returned a % of control in [1] of 87%.

`Cc1cc([C@@H](C)Nc2ccccc2C(=O)O)c2nc(N3CCOCC3)cc(=O)n2c1` [AZD-6482] showed a % of control in [2] of 99%. In turn, `O=C(NOC[C@H](O)CO)c1ccc(F)c(F)c1Nc1ccc(I)cc1F` gave a % of control in [3] of 70%. `COc1cc(N(C)c2ccnc3ccc(C(F)(F)F)cc23)cc(OC)c1OC`: the % binding in [4] was found to be 81%. With `COCCN1CCC(c2cc(CN(C)C(=O)c3cccc(Oc4ccccc4)c3)ccn2)CC1`, the % activity in experiment [5] is 90%. In the case of `Nc1cnc(N2CCc3cc(S(=O)(=O)Nc4c(F)cc(Cl)cc4F)cc(N4CCCC4=O)c32)nc1` [TP-020n], the % of inhibition in experiment [6] was -2.82%. Take `N#Cc1cccc(-c2c[nH]c3ncnc(N4CCOCC4)c23)c1`: the % of control in experiment [7] amounted to 100%.

Regarding `COc1cc(Nc2nc(C)cc(-c3cnn4nc(OC)ccc34)n2)cc(C(F)(F)F)c1`, the % of control in experiment [8] worked out at 93%. Regarding `C=CC(=O)Nc1cccc(C(=O)Nc2ccc(Nc3cc(-c4[nH]c(SC)nc4C)ccn3)cc2)c1`, the % of control was determined as 97% in experiment [9] (at 1 µM) and 94% in experiment [9] (at 5 µM). Compound `O[C@H]1CC[C@H](Nc2ncc3nc(Nc4c(F)cc(F)cc4F)n([C@H]4CCOC4)c3n2)CC1` had a % of control in experiment [10] of 69%. Regarding `Cc1ccc(-c2ccc3c(ccc4sc5c(c43)NC[C@@H](C)NC5=O)n2)cn1`, in experiment [11], the % of inhibition is 19%. Consider `COCC(=O)NC/C=C/c1ccc2ncnc(Nc3ccc(Oc4ccc(C)nc4)c(C)c3)c2c1` [CP-724714], for which, in experiment [12], the % of control was 89%.
